{"source": "patent US7211572B2", "about": "(Japan Tobacco Inc., priority 2003, dated 2007)", "note": "Where a name gives a salt, the structure may show the parent alone."}
{"molecular_target": "T1, HIV integrase (Human immunodeficiency virus type 1 group M subtype B, UniProt P12497, F1332H)", "T1 construct": "HIV integrase full length gene; made in house; host or cells: Escherichia coli BL21(DE3), plasmid pET21a-INH", "experiment": "Determination of enzyme (HIV integrase) inhibitory activity", "format": "biochemical", "settings": "recombinant HIV integrase (F185H), strand transfer ELISA, absorbance at 450 nm", "outline": "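Full-length integrase with F185H, expressed in E. coli and purified, was reacted for 60 min at 37 °C with compound and biotinylated donor DNA bound to streptavidin plates. Target DNA was added for 10 min, then anti-digoxigenin-peroxidase detection at A450; IC50 from % inhibition versus enzyme-free blank.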", "units": {"IC50": "nM"}}
{"smiles": "CN(C)C(=O)c1cn2c(c(O)c1=O)C(=O)N(Cc1ccc(F)c(Cl)c1)CC2", "note": "[Example 228, N,N-dimethyl-2-(3-chloro-4-fluorobenzyl)-9-hydroxy-1,8-dioxo-1,3,4,8-tetrahydro-2H-pyrido[1,2-a]pyrazine-7-carboxamide]", "IC50": "10 to 100"}
{"smiles": "CC(=O)OCC(C)(C)C(=O)c1cn2ccn(Cc3cccc(Cl)c3)c(=O)c2c(O)c1=O", "note": "[Example 229, 3-[2-(3-chlorobenzyl)-9-hydroxy-1,8-dioxo-1,8-dihydro-2H-pyrido[1,2-a]pyrazin-7-yl]-2,2-dimethyl-3-oxopropyl acetate hydrochloride]", "IC50": "< 10"}
{"smiles": "CC(C)(CO)C(=O)c1cn2ccn(Cc3cccc(Cl)c3)c(=O)c2c(O)c1=O", "note": "[Example 230, 2-(3-chlorobenzyl)-9-hydroxy-7-(3-hydroxy-2,2-dimethylpropionyl)-2H-pyrido[1,2-a]pyrazine-1,8-dione hydrochloride]", "IC50": "< 10"}
{"smiles": "O=c1c(-c2cnccn2)cn2ccn(Cc3cccc(Cl)c3)c(=O)c2c1O", "note": "[Example 231, 2-(3-chlorobenzyl)-9-hydroxy-7-(pyrazin-2-yl)-2H-pyrido [1,2-a]pyrazine-1,8-dione hydrochloride]", "IC50": "< 10"}
{"smiles": "Cn1ncnc1-c1cn2ccn(Cc3cccc(Cl)c3)c(=O)c2c(O)c1=O", "note": "[Example 232, 2-(3-chlorobenzyl)-9-hydroxy-7-(2-methyl-2H-1,2,4-triazol-3-yl)-2H-pyrido[1,2-a]pyrazine-1,8-dione hydrochloride]", "IC50": "< 10"}
{"smiles": "O=C(NCCF)c1cn2ccn(Cc3cccc(Cl)c3)c(=O)c2c(O)c1=O", "note": "[Example 233, N-(2-fluoroethyl)-2-(3-chlorobenzyl)-9-hydroxy-1,8-dioxo-1,8-dihydro-2H-pyrido[1,2-a]pyrazine-7-carboxamide]", "IC50": "< 10"}
{"smiles": "CN(Cc1ccccc1)C(=O)c1cn2ccn(Cc3cccc(Cl)c3)c(=O)c2c(O)c1=O", "note": "[Example 234, N-benzyl-N-methyl-2-(3-chlorobenzyl)-9-hydroxy-1,8-dioxo-1,8-dihydro-2H-pyrido[1,2-a]pyrazine-7-carboxamide]", "IC50": "< 10"}
{"smiles": "O=c1c(Sc2ccccc2)cn2ccn(Cc3cccc(Cl)c3)c(=O)c2c1O", "note": "[Example 235, 2-(3-chlorobenzyl)-9-hydroxy-7-phenylsulfanyl-2H-pyrido [1,2-a]pyrazine-1,8-dione]", "IC50": "10 to 100"}
{"smiles": "O=c1c([S+]([O-])c2ccccc2)cn2ccn(Cc3cccc(Cl)c3)c(=O)c2c1O", "note": "(stereo not drawn) [Example 236, 7-benzenesulfinyl-2-(3-chlorobenzyl)-9-hydroxy-2H-pyrido[1,2-a]pyrazine-1,8-dione]", "IC50": "10 to 100"}
{"smiles": "O=c1c(S(=O)(=O)c2ccccc2)cn2ccn(Cc3cccc(Cl)c3)c(=O)c2c1O", "note": "[Example 237, 7-benzenesulfonyl-2-(3-chlorobenzyl)-9-hydroxy-2H-pyrido [1,2-a]pyrazine-1,8-dione]", "IC50": "10 to 100"}
{"smiles": "CC(C)(C)C(=O)c1cn2c(c(O)c1=O)C(=O)N(Cc1ccc(Cl)c(Cl)c1)CC2", "note": "[Example 238, 2-(3,4-dichlorobenzyl)-7-(2,2-dimethylpropionyl)-9-hydroxy-3,4-dihydro-2H-pyrido[1,2-a]pyrazine-1,8-dione]", "IC50": "< 10"}
{"smiles": "CC(C)C(=O)Nc1cn2ccn(Cc3cccc(Cl)c3)c(=O)c2c(O)c1=O", "note": "[Example 239, N-[2-(3-chlorobenzyl)-9-hydroxy-1,8-dioxo-1,8-dihydro-2H-pyrido[1,2-a]pyrazin-7-yl]isobutyramide]", "IC50": "< 10"}
{"smiles": "CC(=O)Nc1cn2ccn(Cc3ccc(F)c(Cl)c3)c(=O)c2c(O)c1=O", "note": "[Example 240, N-[2-(3-chloro-4-fluorobenzyl)-9-hydroxy-1,8-dioxo-1,8-dihydro-2H-pyrido[1,2-a]pyrazin-7-yl]acetamide]", "IC50": "< 10"}
{"smiles": "CC(C)(C)C(=O)c1cn2c(CO)cn(Cc3ccc(F)c(Cl)c3)c(=O)c2c(O)c1=O", "note": "[Example 241, 2-(3-chloro-4-fluorobenzyl)-7-(2,2-dimethylpropionyl)-9-hydroxy-4-hydroxymethyl-2H-pyrido[1,2-a]pyrazine-1,8-dione hydrochloride]", "IC50": "< 10"}
{"smiles": "CCC(=O)Nc1cn2ccn(Cc3cccc(Cl)c3)c(=O)c2c(O)c1=O", "note": "[Example 242, N-[2-(3-chlorobenzyl)-9-hydroxy-1,8-dioxo-1,8-dihydro-2H-pyrido[1,2-a]pyrazin-7-yl]propionamide]", "IC50": "< 10"}
{"smiles": "O=C(Cc1ccccc1)Nc1cn2ccn(Cc3cccc(Cl)c3)c(=O)c2c(O)c1=O", "note": "[Example 243, N-[2-(3-chlorobenzyl)-9-hydroxy-1,8-dioxo-1,8-dihydro-2H-pyrido[1,2-a]pyrazin-7-yl]-2-phenylacetamide]", "IC50": "< 10"}
{"smiles": "CC(=O)c1cn2ccn(Cc3ccc(F)c(Cl)c3)c(=O)c2c(O)c1=O", "note": "[Example 244, 7-acetyl-2-(3-chloro-4-fluorobenzyl)-9-hydroxy-2H-pyrido[1,2-a]pyrazine-1,8-dione hydrochloride]", "IC50": "< 10"}
{"smiles": "CSc1cn2ccn(Cc3cccc(Cl)c3)c(=O)c2c(O)c1=O", "note": "[Example 245, 2-(3-chlorobenzyl)-9-hydroxy-7-methylsulfanyl-2H-pyrido[1,2-a]pyrazine-1,8-dione]", "IC50": "10 to 100"}
{"smiles": "CS(=O)(=O)c1cn2ccn(Cc3cccc(Cl)c3)c(=O)c2c(O)c1=O", "note": "[Example 246, 2-(3-chlorobenzyl)-9-hydroxy-7-methanesulfonyl-2H-pyrido[1,2-a]pyrazine-1,8-dione]", "IC50": "10 to 100"}
{"smiles": "C[S+]([O-])c1cn2ccn(Cc3cccc(Cl)c3)c(=O)c2c(O)c1=O", "note": "(stereo not drawn) [Example 247, 2-(3-chlorobenzyl)-9-hydroxy-7-methanesulfinyl-2H-pyrido[1,2-a]pyrazine-1,8-dione]", "IC50": "10 to 100"}
{"smiles": "Cc1cnc(-c2cn3c(c(O)c2=O)C(=O)N(Cc2cccc(Cl)c2)CC3)s1", "note": "[Example 248, 2-(3-chlorobenzyl)-9-hydroxy-7-(5-methylthiazol-2-yl)-3,4-dihydro-2H-pyrido[1,2-a]pyrazine-1,8-dione]", "IC50": "< 10"}
{"smiles": "O=C1c2c(O)c(=O)c(-c3nccs3)cn2CCN1Cc1ccc(Cl)c(Cl)c1", "note": "[Example 249, 2-(3,4-dichlorobenzyl)-9-hydroxy-7-(thiazol-2-yl)-3,4-dihydro-2H-pyrido[1,2-a]pyrazine-1,8-dione]", "IC50": "< 10"}
{"smiles": "O=c1ccn2ccn(Cc3ccc(F)cc3)c(=O)c2c1O", "note": "[Example 250, 2-(4-fluorobenzyl)-9-hydroxy-2H-pyrido[1,2-a]pyrazine-1,8-dione hydrochloride]", "IC50": "10 to 100"}
{"smiles": "CC(C)(C)C(=O)c1cn2ccn(Cc3ccc(F)cc3)c(=O)c2c(O)c1=O", "note": "[Example 251, 7-(2,2-dimethylpropionyl)-2-(4-fluorobenzyl)-9-hydroxy-2H-pyrido[1,2-a]pyrazine-1,8-dione hydrochloride]", "IC50": "< 10"}
{"smiles": "O=c1c(-c2nccs2)cn2ccn(Cc3ccc(F)cc3)c(=O)c2c1O", "note": "[Example 252, 2-(4-fluorobenzyl)-9-hydroxy-7-(thiazol-2-yl)-2H-pyrido[1,2-a]pyrazine-1,8-dione hydrochloride]", "IC50": "< 10"}
{"smiles": "CNC(=O)c1cn2ccn(Cc3ccc(F)cc3)c(=O)c2c(O)c1=O", "note": "[Example 253, N-methyl-2-(4-fluorobenzyl)-9-hydroxy-1,8-dioxo-1,8-dihydro-2H-pyrido[1,2-a]pyrazine-7-carboxamide]", "IC50": "< 10"}
{"smiles": "CC(C)(C)C(=O)c1cn2ccn(CCCc3c(F)cccc3Cl)c(=O)c2c(O)c1=O", "note": "[Example 254, 2-[3-(2-chloro-6-fluorophenyl)propyl]-7-(2,2-dimethylpropionyl)-9-hydroxy-2H-pyrido[1,2-a]pyrazine-1,8-dione hydrochloride]", "IC50": "< 10"}
